Measured values: US9737603B1, “Alcohol-based local anesthesia and associated use thereof” (priority 2014, dated 2017)

Columns and labels:
[1] = test system: skin tissue; assay: Topical anesthesia / analgesia after application to skin; format: in vivo; details: 1% (w/v) menthol, preliminary work
Excerpt: The alcohol-based topical anesthesia chemical composition 10 also has a skin analgesic, menthol 1% (w/v).

[2] = Solution stability (precipitation of benzocaine); format: physicochemical; details: liquid embodiment, isopropyl alcohol 70-75% (v)
Excerpt: In a non-limiting exemplary embodiment, the alcohol-based topical anesthesia chemical composition 10 may be stored in a tightly sealed container at 25 C or a temperature range of 20 C to 40 C. Temperatures below 15 C may cause the benzocaine to precipitate.
However, beyond 16% (w/v) of benzocaine, the solution stability becomes an issue due to the precipitation of benzocaine; and menthol can be effectively utilized in the range 1% to 3% (w/v).

[3] = test system: skin tissue; details: topical; cited from earlier work

CC1CCC(C(C)C)C(O)C1 (stereo not drawn) [menthol]
counterirritant analgesic property [1]: safe yet effective

CCOC(=O)c1ccc(N)cc1 [benzocaine]
benzocaine concentration beyond which solution stability becomes an issue due to precipitation of benzocaine [2]: > 16 % (w/v)

C[C@]12CCC(=O)C=C1CC[C@@H]1[C@@H]2[C@@H](O)C[C@@]2(C)[C@H]1CC[C@]2(O)C(=O)CO [Hydrocortisone]
analgesia (alternatives to menthol) [3]: does not provide immediate analgesia
